Assays:
Format in all cases: cell-based
[1] = target: T1, VDR (Homo sapiens, UniProt P11473); assay: Gal4-hybrid reporter gene assay VDR (selectivity); settings: mean, n ≥ 3, Fig. 8
T1 construct: expressed in transfected cells; host or cells: HEK293T
T1 sequence (P11473 97-427 limits assumed): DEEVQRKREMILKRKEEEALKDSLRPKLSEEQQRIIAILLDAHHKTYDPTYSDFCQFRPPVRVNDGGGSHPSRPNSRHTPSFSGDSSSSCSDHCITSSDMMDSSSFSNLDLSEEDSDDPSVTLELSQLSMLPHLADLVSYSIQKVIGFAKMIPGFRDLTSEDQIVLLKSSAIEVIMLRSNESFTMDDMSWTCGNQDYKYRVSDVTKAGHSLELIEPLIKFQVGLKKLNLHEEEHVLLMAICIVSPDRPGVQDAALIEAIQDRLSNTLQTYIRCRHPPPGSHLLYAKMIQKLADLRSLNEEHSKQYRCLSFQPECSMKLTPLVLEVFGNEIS
Protocol: (§1) NR modulation was determined as described previously[45] in Gal4 hybrid reporter gene assays in HEK293T cells (German Collection of Microorganisms and Cell Culture GmbH, DSMZ) using pFR-Luc (Stratagene, La Jolla, CA, USA; reporter), pRL-SV40 (Promega, Madison, WI, USA; internal control) and the hybrid receptor clones pFA-CMV-hTHRα-LBD,[46] pFA-CMV-hPPARγ-LBD,[47] pFA-CMV-hFXR-LBD,[48] and pFA-CMV-hRXRα-LBD,[49] coding for the hinge region and ligand binding domain of the canonical isoform of the respective NR. Cells were cultured in Dulbecco's modified Eagle's medium (DMEM), high glucose supplemented with 10% fetal calf serum (FCS), sodium pyruvate (1 mM), penicillin (100 U mL^−1), and streptomycin (100 μg mL^−1) at 37 °C and 5% CO2 and seeded in 96-well plates (3 × 10^4 cells per well). After 24 h, medium was changed to Opti-MEM without supplements and cells were transiently transfected using Lipofectamine LTX reagent (Invitrogen, Carlsbad, CA, USA) according to the manufacturer's protocol. Five hours after transfection, cells were incubated with the test compounds in Opti-MEM supplemented with penicillin (100 U mL^−1), streptomycin (100 μg mL^−1) and 0.1% DMSO for 16 h before luciferase activity was measured using the Dual-Glo Luciferase Assay System (Promega) according to the manufacturer's protocol on a Tecan Spark luminometer (Tecan Deutschland GmbH, Crailsheim, Germany). Firefly luminescence was divided by Renilla luminescence and multiplied by 1000 resulting in relative light units (RLU) to normalize for transfection efficiency and cell growth. Fold activation was obtained by dividing the mean RLU of test compound by the mean RLU of the untreated control. All samples were tested in at least three biologically independent experiments in duplicates. For dose–response curve fitting and calculation of EC50 values, the equation “[agonist] vs. response − variable slope (four parameters)” was used in GraphPad Prism (version 7.00, GraphPad Software, La Jolla, CA, USA). For selectivity profiling, the hybrid reporter gene assay was performed with Gal4 fusion receptor plasmids for RARα, PPARα, PPARδ, VDR, CAR and LXRα. The following reference agonists were used: triiodothyronine (1 μM, THR), all-trans retinoic acid (1 μM, RAR), GW7647 (1 μM, PPARα), pioglitazone (1 μM, PPARγ), L165041 (1 μM, PPARδ), calcitriol (1 μM, VDR), CITCO (1 μM, CAR), T0901317 (1 μM, LXR), GW4064 (1 μM, FXR), bexarotene (1 μM, RXR).

[2] = target: T2, FXR (Homo sapiens, UniProt Q96RI1); assay: Gal4-hybrid reporter gene assay FXR; settings: n ≥ 3; for fold act. FXR: mean, Fig. 8; for EC50 / EC50 FXR: HEK293T, Gal4-hybrid reporter, Inactive = tested 1–300 μM; for EC50 / max. fold activation FXR / EC50 FXR: mean ± S.E.M.; for max. fold activation FXR: maximum reporter activation vs DMSO (0.1%) treated cells
T2 construct: expressed in transfected cells; host or cells: HEK293T
T2 sequence (Q96RI1 262-486 limits assumed): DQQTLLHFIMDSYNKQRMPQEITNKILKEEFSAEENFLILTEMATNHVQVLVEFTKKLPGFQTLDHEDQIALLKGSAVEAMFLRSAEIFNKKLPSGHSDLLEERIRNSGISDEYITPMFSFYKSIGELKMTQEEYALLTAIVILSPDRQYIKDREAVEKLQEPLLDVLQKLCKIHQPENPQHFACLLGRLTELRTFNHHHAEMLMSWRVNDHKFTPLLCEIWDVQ
Protocol: as §1

[3] = target: T3, PPARδ (Homo sapiens, UniProt Q03181); assay: Gal4-hybrid reporter gene assay PPARδ (selectivity); settings: mean, n ≥ 3, Fig. 8
T3 construct: expressed in transfected cells; host or cells: HEK293T
T3 sequence (Q03181 138-441 limits assumed): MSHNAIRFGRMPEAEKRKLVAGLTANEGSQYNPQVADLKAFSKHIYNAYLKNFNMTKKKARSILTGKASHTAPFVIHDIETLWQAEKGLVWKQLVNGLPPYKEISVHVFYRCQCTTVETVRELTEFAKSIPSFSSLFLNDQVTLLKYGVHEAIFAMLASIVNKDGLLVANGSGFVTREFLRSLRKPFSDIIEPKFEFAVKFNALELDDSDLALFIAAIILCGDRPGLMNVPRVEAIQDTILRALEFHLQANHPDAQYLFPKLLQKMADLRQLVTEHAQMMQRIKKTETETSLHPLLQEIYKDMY
Protocol: as §1

[4] = test system: CAR; assay: Gal4-hybrid reporter gene assay CAR (selectivity); settings: mean, n ≥ 3, Fig. 8
Protocol: as §1

[5] = target: T4, LXRα (Homo sapiens, UniProt Q13133); assay: Gal4-hybrid reporter gene assay LXRα (selectivity); settings: mean, n ≥ 3, Fig. 8
T4 construct: expressed in transfected cells; host or cells: HEK293T
T4 sequence (Q13133 171-447 limits assumed): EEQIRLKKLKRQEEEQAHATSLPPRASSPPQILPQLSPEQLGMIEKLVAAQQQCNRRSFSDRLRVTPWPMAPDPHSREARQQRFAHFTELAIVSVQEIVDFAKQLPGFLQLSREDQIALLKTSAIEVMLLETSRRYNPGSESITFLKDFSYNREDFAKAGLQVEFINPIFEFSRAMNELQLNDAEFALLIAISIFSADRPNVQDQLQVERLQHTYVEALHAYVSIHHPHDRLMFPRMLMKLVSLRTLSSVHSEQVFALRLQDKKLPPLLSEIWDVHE
Protocol: as §1

Compound: CCOc1ccc(-c2cc(C(=O)O)co2)cc1 [3.1, 5-(4-Ethoxyphenyl)furan-3-carboxylic acid]
- fold act. VDR ([1]; 10 μM): 3 fold
- fold act. FXR ([2]; 10 μM): 6 fold
- EC50 [2]: 1.3 ± 0.3 µM
- max. fold activation FXR [2]: (6.4 ± 0.3-fold)
- fold act. PPARδ ([3]; 10 μM): 2 fold
- fold act. CAR ([4]; 10 μM): 3 fold
- fold act. LXR ([5]; 10 μM): 3 fold

Compound: O=C(O)/C=C/C(=O)c1ccc(Cl)cc1Cl [4.6, (E)-4-Oxo-4-(2,4-dichlorophenyl)but-2-enoic acid]
- fold act. VDR ([1]; 30 μM): 1 fold
- fold act. FXR ([2]; 30 μM): 1 fold
- EC50 FXR [2]: Inactive
- fold act. PPARδ ([3]; 30 μM): 1 fold
- fold act. CAR ([4]; 30 μM): 1 fold
- fold act. LXR ([5]; 30 μM): 1 fold

Compound: O=C(O)/C=C/C(=O)c1ccc(-c2ccccc2)cc1 [4.7, (E)-4-([1,1′-Biphenyl]-4-yl)-4-oxobut-2-enoic acid]
- fold act. VDR ([1]; 30 μM): 2 fold
- fold act. FXR ([2]; 30 μM): 1 fold
- EC50 FXR [2]: Inactive
- fold act. PPARδ ([3]; 30 μM): 3 fold
- fold act. CAR ([4]; 30 μM): 2 fold
- fold act. LXR ([5]; 30 μM): 1 fold

Compound: O=C(O)/C=C/C(=O)c1ccc2ccccc2c1 [4.8, (E)-4-Oxo-4-(naphthalen-2-yl)but-2-enoic acid]
- fold act. VDR ([1]; 40 μM): 3 fold
- fold act. FXR ([2]; 40 μM): 6 fold
- EC50 [2]: 26 ± 4 µM
- max. fold activation FXR [2]: (7 ± 1-fold)
- fold act. PPARδ ([3]; 40 μM): 3 fold
- fold act. CAR ([4]; 40 μM): 3 fold
- fold act. LXR ([5]; 40 μM): 3 fold
